Several values for one entry are separate records, joined by “and”; a condition that tells them apart may be missing. Identical values can stand only once. Toxic doses and inconclusive results are not listed. No stated cut-off is given here; in the data, active means T/C of 150% or more; inactive means T/C below 125%.
System: L1210 leukemia ip in BDF1 mice, survival T/C
Test: NCI In Vivo Anticancer Drug Screen. Data for tumor model L1210 Leukemia (intraperitoneal) in B6D2F1 (BDF1) mice
Settings: endpoint: mean survival time, higher = longer survival
Summary of the method: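 In this screen, tumor-bearing mice given compound are compared to those given vehicle, and their survival values are reported as a treated-to-control quotient.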

[1] = dose: 25.0 mg/kg/injection, schedule: Q01DX009 (ip), vehicle: saline
[2] = dose: 50.0 mg/kg/injection, schedule: Q01DX009 (ip), vehicle: saline
[3] = dose: 100.0 mg/kg/injection, schedule: Q01DX009 (ip), vehicle: saline
[4] = dose: 100.0 mg/kg/injection, schedule: Q04DX003 (ip), vehicle: saline
[5] = dose: 200.0 mg/kg/injection, schedule: Q01DX009 (ip), vehicle: saline
[6] = dose: 200.0 mg/kg/injection, schedule: Q04DX003 (ip), vehicle: saline
[7] = dose: 400.0 mg/kg/injection, schedule: Q04DX003 (ip), vehicle: saline
[8] = dose: 100.0 mg/kg/injection, schedule: Q01DX009 (ip), vehicle: saline with Tween-80
[9] = dose: 200.0 mg/kg/injection, schedule: Q01DX009 (ip), vehicle: saline with Tween-80
[10] = dose: 400.0 mg/kg/injection, schedule: Q01DX009 (ip), vehicle: saline with Tween-80
[11] = dose: 100.0 mg/kg/injection, schedule: Q04DX003 (ip), vehicle: saline with Tween-80
[12] = dose: 200.0 mg/kg/injection, schedule: Q04DX003 (ip), vehicle: saline with Tween-80
[13] = dose: 400.0 mg/kg/injection, schedule: Q01DX009 (ip), vehicle: saline
[14] = dose: 100.0 mg/kg/injection, schedule: Q04DX002 (ip), vehicle: saline
[15] = dose: 200.0 mg/kg/injection, schedule: Q04DX002 (ip), vehicle: saline
[16] = dose: 400.0 mg/kg/injection, schedule: Q04DX002 (ip), vehicle: saline
[17] = dose: 400.0 mg/kg/injection, schedule: Q04DX003 (ip), vehicle: saline with Tween-80
[18] = dose: 100.0 mg/kg/injection, schedule: Q04DX002 (ip), vehicle: saline with Tween-80
[19] = dose: 400.0 mg/kg/injection, schedule: Q04DX002 (ip), vehicle: saline with Tween-80
[20] = dose: 100.0 mg/kg/injection, schedule: Q01DX009 (ip), vehicle: Klucel (hydroxypropylcellulose) (HPC)
[21] = dose: 200.0 mg/kg/injection, schedule: Q01DX009 (ip), vehicle: Klucel (hydroxypropylcellulose) (HPC)
[22] = dose: 400.0 mg/kg/injection, schedule: Q01DX009 (ip), vehicle: Klucel (hydroxypropylcellulose) (HPC)
[23] = dose: 100.0 mg/kg/injection, schedule: Q04DX003 (ip), vehicle: Klucel (hydroxypropylcellulose) (HPC)
[24] = dose: 200.0 mg/kg/injection, schedule: Q04DX003 (ip), vehicle: Klucel (hydroxypropylcellulose) (HPC)
[25] = dose: 400.0 mg/kg/injection, schedule: Q04DX003 (ip), vehicle: Klucel (hydroxypropylcellulose) (HPC)
[26] = dose: 100.0 mg/kg/injection, schedule: Q01DX001 (ip), vehicle: saline with Tween-80
[27] = dose: 200.0 mg/kg/injection, schedule: Q01DX001 (ip), vehicle: saline with Tween-80
[28] = dose: 400.0 mg/kg/injection, schedule: Q01DX001 (ip), vehicle: saline with Tween-80

Measured: T/C

CCCC1(CCC)CN(CO)C1=O
inactive: [1] 102 % of control | dose: 25.0 mg/kg/injection, schedule: Q04DX003 (ip), vehicle: saline 93 % of control | [2] 102 % of control | dose: 50.0 mg/kg/injection, schedule: Q04DX003 (ip), vehicle: saline 98 % of control | [3] 100 % of control | [4] 104 % of control | [5] 97 % of control | [6] 104 % of control | [7] 88 % of control

CCCCOC(=O)C1OC1(C)c1ccc(C)cc1 (stereo not given)
inactive: [8] 103 % of control | [9] 113 % of control | [10] 100 % of control

c1cc2c3c(c1)ncn3CCC2
inactive: dose: 50.0 mg/kg/injection, schedule: Q01DX009 (ip), vehicle: other 119 % of control | dose: 100.0 mg/kg/injection, schedule: Q01DX009 (ip), vehicle: other 104 % of control | [11] 102 % of control | dose: 200.0 mg/kg/injection, schedule: Q01DX009 (ip), vehicle: other 117 % of control | [12] 100 % of control

CN(C)NC(=O)CC(NCc1ccccc1)C(=O)O (stereo not given)
inactive: [8] 94 % of control | [9] 95 % of control | [10] 95 % of control

C=CCOc1ccn(C)c(=O)n1
inactive: [3] 98 % of control | [4] 108 % of control | [5] 101 % of control | [6] 97 % of control | [13] 98 % of control | [7] 111 % of control

CS(=O)(=O)Oc1ccc2cc(Br)ccc2c1
inactive: dose: 100.0 mg/kg/injection, schedule: Q01DX001 (ip), vehicle: carboxymethylcellulose (CMC) 102 % of control | dose: 200.0 mg/kg/injection, schedule: Q01DX001 (ip), vehicle: carboxymethylcellulose (CMC) 100 % of control | dose: 400.0 mg/kg/injection, schedule: Q01DX001 (ip), vehicle: carboxymethylcellulose (CMC) 107 % of control

OC(COc1ccccc1)CC(O)(C(F)(F)F)C(F)(F)F (stereo not given)
inactive: dose: 75.0 mg/kg/injection, schedule: Q01DX009 (ip), vehicle: saline with Tween-80 92 % of control | dose: 150.0 mg/kg/injection, schedule: Q01DX009 (ip), vehicle: saline with Tween-80 89 % of control | dose: 300.0 mg/kg/injection, schedule: Q01DX009 (ip), vehicle: saline with Tween-80 103 % of control

CC(=O)OC1C(=O)C(O)C(C)OC1O[C@@H]1C[C@@]2(C)[C@@H]3CC=C4[C@@H](C[C@H](O)C(=O)C4(C)C)[C@]3(C)C(=O)C[C@]2(C)[C@H]1[C@@](C)(O)C(=O)/C=C/C(C)(C)O (stereo not given in full)
inactive: dose: 0.33 mg/kg/injection, schedule: Q01DX009 (ip), vehicle: saline 113 % of control | dose: 0.6 mg/kg/injection, schedule: Q01DX009 (ip), vehicle: saline 106 % of control | dose: 0.67 mg/kg/injection, schedule: Q01DX009 (ip), vehicle: saline 112 % of control | dose: 1.0 mg/kg/injection, schedule: Q01DX009 (ip), vehicle: saline 108 % of control | dose: 1.25 mg/kg/injection, schedule: Q01DX009 (ip), vehicle: saline 120 % of control | dose: 1.5 mg/kg/injection, schedule: Q01DX009 (ip), vehicle: saline 101 % of control | dose: 2.5 mg/kg/injection, schedule: Q01DX009 (ip), vehicle: saline 97 % of control

CCOC(=O)NC(S(=O)(=O)O)S(=O)(=O)O.[Tl]
inactive: dose: 25.0 mg/kg/injection, schedule: Q01DX001 (ip), vehicle: saline with Tween-80 102 % of control

Cc1ccc2c(c1)S(=O)(=O)N(C)C(c1ccccc1)=C2
inactive: dose: 100.0 mg/kg/injection, schedule: Q01DX001 (ip), vehicle: steriod suspending solution 96 % of control | dose: 200.0 mg/kg/injection, schedule: Q01DX001 (ip), vehicle: steriod suspending solution 105 % of control | dose: 400.0 mg/kg/injection, schedule: Q01DX001 (ip), vehicle: steriod suspending solution 86 % of control

CCN(CCNS(C)(=O)=O)c1ccc(N)c(C)c1
inactive: dose: 3.12 mg/kg/injection, schedule: Q01DX009 (ip), vehicle: saline 101 % of control | dose: 6.25 mg/kg/injection, schedule: Q01DX009 (ip), vehicle: saline 91 % of control | dose: 12.5 mg/kg/injection, schedule: Q01DX009 (ip), vehicle: saline 99 % of control and 92 % of control

C=CCP(C)(=O)CC=C
inactive: [14] 102 % of control | [15] 108 % of control | [16] 94 % of control

O=C1Cc2cccc3c2C(C1)CN3C(=O)c1ccccc1 (stereo not given)
inactive: [8] 90 % of control | [11] 100 % of control | [9] 88 % of control | [12] 94 % of control | [10] 97 % of control | [17] 95 % of control

NC(=O)c1c(/N=C/c2cc(Br)ccc2O)sc2c1CCCC2
inactive: dose: 25.0 mg/kg/injection, schedule: Q04DX002 (ip), vehicle: saline with Tween-80 87 % of control | dose: 50.0 mg/kg/injection, schedule: Q04DX002 (ip), vehicle: saline with Tween-80 87 % of control | [18] 93 % of control | [19] 87 % of control

O=C(N/N=C/c1ccccc1O)c1ccccc1NC(=O)C1CC1
inactive: [20] 104 % of control | [21] 95 % of control | [22] 101 % of control

O/N=C\C[n+]1cc2ccccc2cc1/C=N\O
inactive: [1] 97 % of control | [2] 97 % of control | [3] 104 % of control | [4] 98 % of control

C1=C\CCC2(OCCO2)C2(CC/1)OCCO2
inactive: dose: 50.0 mg/kg/injection, schedule: Q04DX003 (ip), vehicle: Klucel (hydroxypropylcellulose) (HPC) 100 % of control | dose: 100.0 mg/kg/injection, schedule: Q01DX001 (ip), vehicle: Klucel (hydroxypropylcellulose) (HPC) 111 % of control | [20] 104 % of control | [23] 100 % of control | dose: 200.0 mg/kg/injection, schedule: Q01DX001 (ip), vehicle: Klucel (hydroxypropylcellulose) (HPC) 109 % of control | [21] 98 % of control | [24] 97 % of control | dose: 400.0 mg/kg/injection, schedule: Q01DX001 (ip), vehicle: Klucel (hydroxypropylcellulose) (HPC) 105 % of control | [22] 98 % of control | [25] 95 % of control

O=C(O)c1cc(=O)cc(C(=O)O)[nH]1
inactive: [20] 102 % of control | [23] 102 % of control | [21] 96 % of control | [24] 96 % of control | [22] 92 % of control | [25] 104 % of control

CC(C)N1CCC(=O)NC1=O
inactive: [23] 94 % of control | [4] 94 % of control | [24] 94 % of control | [6] 92 % of control | [25] 91 % of control | [7] 103 % of control

CC1OC(C2COC(C)(C)O2)C2OC(C)(C)OC12 (stereo not given)
inactive: [26] 101 % of control | [27] 101 % of control | [28] 101 % of control

CC1CCCC(C)N1 (stereo not given)
inactive: [2] 94 % of control | [3] 96 % of control and 100 % of control | [4] 110 % of control and 102 % of control | [5] 94 % of control and 106 % of control | [6] 102 % of control and 94 % of control | [13] 95 % of control | [7] 87 % of control

O=[N+]([O-])c1c(Cl)nc2sccn12
inactive: [14] 106 % of control | [15] 109 % of control | [16] 90 % of control

O=C(NC(=S)Nc1cccc2ccc(O)cc12)c1ccc(Cl)cc1Cl
inactive: [26] 101 % of control | [8] 94 % of control and 106 % of control | [18] 103 % of control and 92 % of control | [11] 100 % of control | [27] 92 % of control | [9] 98 % of control and 101 % of control | dose: 200.0 mg/kg/injection, schedule: Q04DX002 (ip), vehicle: saline with Tween-80 95 % of control and 103 % of control | [12] 97 % of control | [28] 103 % of control | [10] 103 % of control and 108 % of control | [19] 97 % of control and 98 % of control | [17] 92 % of control

CC(=O)OC1CCC2(C)C3=C(CCC2C1(C)C)C1CCC(C(C)CCC=C(C)C)C1(C)CC3 (stereo not given)
inactive: [23] 96 % of control | [24] 96 % of control
